Laboratory results taken from publication PMC5443783, “Prostaglandin E2 glyceryl ester is an endogenous agonist of the nucleotide receptor P2Y6” (Scientific Reports, 2017).

Assays:
P2Y6 [1] = molecular target: T1, P2Y6 (Homo sapiens, UniProt Q15077); assay: cAMP-inhibition assay in P2RY6-transfected HEK293 cells; format: cell-based; parameters: expressed in transfected cells; host or cells: HEK293; conditions: P2RY6-transfected HEK293, 2.5 µM forskolin, Fig. 3c; read-out: EC50, suppression of cAMP formation
T1 sequence (Q15077 whole entry): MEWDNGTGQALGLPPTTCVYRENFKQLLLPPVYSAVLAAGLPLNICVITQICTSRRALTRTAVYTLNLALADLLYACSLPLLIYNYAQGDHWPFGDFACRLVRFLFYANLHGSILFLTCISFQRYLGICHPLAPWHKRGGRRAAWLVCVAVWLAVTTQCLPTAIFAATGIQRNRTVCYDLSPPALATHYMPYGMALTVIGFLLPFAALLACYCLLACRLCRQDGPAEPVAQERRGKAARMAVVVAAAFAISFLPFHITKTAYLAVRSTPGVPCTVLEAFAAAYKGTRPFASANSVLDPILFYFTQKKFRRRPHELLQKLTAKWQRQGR
Method: After transfection (72 h), cells were washed once with DMEM/F12 containing 1 mM 3-isobutyl-methyl-xanthine (IBMX) followed by incubation in the presence of the indicated compounds and forskolin (2.5 µM) for 15 min at 37 °C. The final concentration of DMSO was 1%. Cells were lysed in 25 μl lysis buffer (5 mM HEPES; 0.1% BSA; 0.3% Tween20; 1 mM IBMX; pH 7.4) and kept frozen at −20 °C until measurement. To measure cAMP concentration, the AlphaScreen cAMP assay kit (PerkinElmer Life Sciences) was used according to the manufacturer’s protocol.

P2Y6 [2] = molecular target: T1, P2Y6; assay: IP3 assay in P2RY6-transfected HEK293 cells; format: cell-based; parameters: expressed in transfected cells; host or cells: HEK293; conditions: Fig. 3a, read-out: EC50, IP3 levels
Method: To measure intracellular IP3 the HitHunter® Inositol (1,4,5) Triphosphate Assay (DiscoveRx, USA) was used according to manufacturer′s protocol. HEK293 cells stably transfected with hP2RY6 were seeded in a 384-well Black microtiter plate (15,000 cells/well) (Greiner Bio One, Germany) and incubated with indicated concentrations of UDP and PGE2-G for 20 seconds. Reaction was stopped by adding 5 µl 0.2 N perchloric acid and measurement of IP3 was performed with the Fusion AlphaScreen multilabel reader (PerkinElmer Life Sciences) according to manufacturer′s protocol. To measure IP1, HEK293 cells expressing wildtype and mutant P2Y6 were seeded into 384-well plates (5,000 cells/well) 24 h prior assay. After aspiration of the medium, cells were incubated with indicated concentrations of agonists/antagonist for 1 h. IP1 measurements using the IP-one HTFR® assay kit (Cisbio assays, USA) were performed according to manufacturer′s protocol. The assays were performed with a final concentration of 1% DMSO.

P2Y1 = molecular target: T2, P2Y1 (Homo sapiens, UniProt P47900); assay: Intracellular Ca2+ release in HEK293 cells transfected with P2RY1; format: cell-based; conditions: HEK293 transfected with P2RY1, Fig. 3f
T2 construct: expressed in transfected cells; host or cells: HEK293
T2 sequence (P47900 whole entry, species assumed): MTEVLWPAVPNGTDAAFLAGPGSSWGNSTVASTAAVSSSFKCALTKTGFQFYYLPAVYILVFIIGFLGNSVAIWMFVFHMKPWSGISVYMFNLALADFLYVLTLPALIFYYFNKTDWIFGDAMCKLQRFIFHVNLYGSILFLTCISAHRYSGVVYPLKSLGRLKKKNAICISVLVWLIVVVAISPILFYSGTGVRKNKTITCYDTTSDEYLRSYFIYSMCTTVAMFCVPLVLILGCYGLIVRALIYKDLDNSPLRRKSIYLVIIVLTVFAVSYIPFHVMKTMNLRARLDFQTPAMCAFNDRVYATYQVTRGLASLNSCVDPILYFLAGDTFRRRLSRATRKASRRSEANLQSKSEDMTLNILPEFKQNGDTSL
Method: For fluorometric measurements of intracellular Ca^2+ levels with the FlexStationII instrument (Molecular Devices), RAW264.7 and H1819 cells were seeded into 96-well plates (3.0 × 10^4 cells/well) 24 h prior to assay. Ca^2+ measurements with transiently transfected HEK293 cells were performed 48 h after transfection. Cells were loaded with 200 µl Calcium 5 reagent (Explorer Kit, Molecular Devices, USA) for 60 min at 37 °C, and the assay was performed as described. Agonists and inhibitors were solved in DMSO (100x) and diluted […] in 96-well compound plates containing HBSS. 50 µl of compound solution were added to the assay plate resulting in final concentration of 1% DMSO. Fold-response was calculated by RFUmax − RFUmin (ligand)/RFUmax − RFUmin (vehicle). EC50 values were calculated by using GraphPad Prism6 software (GraphPad, USA).

[3] = system: prostanoid receptors EP1–4, DP, FP, TP, or IP; parameters: method as in PMID 18297109, PMID 14766978, PMID 14757851; conditions: cited from earlier work

| Compound | EC50 (P2Y6 [1]) [nM] | EC50 (P2Y6 [2]) [nM] | Ca2+ release (P2Y1) | activation of known prostanoid receptors [3] |
| --- | --- | --- | --- | --- |
| O=c1ccn([C@@H]2O[C@H](COP(=O)(O)OP(=O)(O)O)[C@@H](O)[C@H]2O)c(=O)[nH]1 [UDP] | 3.6 ± 0.3 | 2.7 ± 0.1 | – | – |
| Prostaglandin E2 glyceryl ester [PGE2-G] | – | – | not and neither P2Y1 nor P2Y12 showed activity | does not efficiently activate |
